Reference: US7569588B2, “Biphenyl compounds useful as muscarinic receptor antagonists” (Theravance, Inc., priority 2004, dated 2009)
Values belong to the molecule of their own block, whether it stands above or below them.

Columns and labels:
[1] = molecular target: T1, hM2 receptor (CHO-K1 cell membranes) (Homo sapiens, UniProt P08172); test: Blockade of agonist-mediated (oxotremorine-stimulated) [35S]GTPγS binding; assay type: biochemical; details: CHO-K1 cells expressing the hM2 receptor
T1 construct: expressed in transfected cells; host or cells: membranes of CHO (CHO-K1) cells stably expressing the cloned human receptor
T1 sequence (P08172 1-466): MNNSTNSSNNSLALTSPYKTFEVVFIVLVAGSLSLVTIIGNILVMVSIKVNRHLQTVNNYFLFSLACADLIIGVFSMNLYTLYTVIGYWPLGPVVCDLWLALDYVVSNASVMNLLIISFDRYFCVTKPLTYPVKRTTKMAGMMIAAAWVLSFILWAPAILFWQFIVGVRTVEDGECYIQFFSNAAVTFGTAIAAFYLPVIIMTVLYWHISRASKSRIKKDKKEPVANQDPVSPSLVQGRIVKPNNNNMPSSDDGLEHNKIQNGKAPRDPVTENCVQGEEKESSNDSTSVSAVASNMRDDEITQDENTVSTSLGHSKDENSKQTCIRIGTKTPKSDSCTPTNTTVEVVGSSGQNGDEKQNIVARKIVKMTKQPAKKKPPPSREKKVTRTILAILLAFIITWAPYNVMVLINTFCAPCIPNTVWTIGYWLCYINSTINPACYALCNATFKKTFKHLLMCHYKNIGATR
Procedure: B. Blockade of Agonist-Mediated [^35S]GTPγS Binding
In a second functional assay, the functional potency of test compounds can be determined by measuring the ability of the compounds to block oxotremorine-stimulated [^35S]GTPγS binding in CHO—K1 cells expressing the hM2 receptor.
At the time of use, frozen membranes were thawed and then diluted in assay buffer with a final target tissue concentration of 5-10 μg protein per well. The membranes were briefly homogenized using a Polytron PT-2 100 tissue disrupter and then added to the assay plates.
The EC90 value (effective concentration for 90% maximal response) for stimulation of[^35S]GTPγS binding by the agonist oxotremorine was determined in each experiment.
To determine the ability of a test compound to inhibit oxotremorine-stimulated [^35S]GTPγS binding, the following was added to each well of 96 well plates: 25 μL of assay buffer with [^35S]GTPγS (0.4nM), 25 μL of oxotremorine(ECgo) and GDP (3 μM), 25 μL of diluted test compound and 25 μL CHO cell membranes expressing the hM2 receptor. […] Microscint-20 scintillation liquid (50 μL) was added to each well, and each plate was sealed and radioactivity counted on a topcounter (PerkinElmer). Data were analyzed by nonlinear regression analysis with the GraphPad Prism Software package (GraphPad Software, Inc., San Diego, Calif.) using the non-linear regression, one-site competition equation. […]

hM3 receptor (CHO cells) = molecular target: T2, hM3 receptor (CHO cells) (Homo sapiens, UniProt P20309); test: Blockade of agonist-mediated calcium release via FLIPR assay; assay type: cell-based; details: CHO cells stably expressing the hM3 receptor
T2 construct: expressed in transfected cells
From the text: C. Blockade of Agonist-Mediated Calcium Release via FLIPR Assays
Muscarinic receptor subtypes (M1, M3 and M5 receptors), which couple to Gq proteins, activate the phospholipase C (PLC) pathway upon agonist binding to the receptor. As a result, activated PLC hydrolyzes phosphatyl inositol diphosphate (PIP2) to diacylglycerol (DAG) and phosphatidyl-1,4,5-triphosphate (IP3), which in turn generates calcium release from intracellular stores, i.e., endoplasmic and sarcoplasmic reticulum. […] This fluorescence event was measured in real time by the FLIPR, which detected the change in fluorescence from a monolayer of cells cloned with human M1 and M3, and chimpanzee M5 receptors. Antagonist potency was determined by the ability of antagonists to inhibit agonist-mediated increases in intracellular calcium. […]
To determine antagonist potency, the dose-dependent stimulation of intracellular Ca^2+release for oxotremorine was first determined so that antagonist potency can later be measured against oxotremorine stimulation at an EC90 concentration. […] Baseline was determined by measuring the change in fluorescence for 10 seconds prior to addition of agonist. Following agonist stimulation, the FLIPR continuously measured the change of fluorescence every 0.5 to 1 second for 1.5 minutes to capture the maximum fluorescence change. […]

[2] = system: pilocarpine-evoked salivation; test: Inhalation guinea pig salivation assay (pilocarpine-evoked salivation); assay type: in vivo
[3] = molecular target: T3, hM2 receptor (CHO-K1 cells) (Homo sapiens, UniProt P08172); test: Blockade of agonist-mediated (oxotremorine) inhibition of forskolin-mediated cAMP accumulation; assay type: cell-based; details: CHO-K1 cells expressing the hM2 receptor
T3 construct: expressed in transfected cells; host or cells: CHO-K1 cells
T3 sequence (P08172 1-466): T1 sequence (P08172 1-466)
Procedure: A. Blockade of Agonist-Mediated Inhibition of cAMP Accumulation
In this assay, the functional potency of a test compound was determined by measuring the ability of the test compound to block oxotremorine-inhibition of forskolin-mediated cAMP accumulation in CHO—K1 cells expressing the hM2 receptor.
cAMP assays were performed in a radioimmunoassay format using the Flashplate Adenylyl Cyclase Activation Assay System with ^1251-cAMP (NEN SMP004B, PerkinElmer Life Sciences Inc., Boston, Mass.), according to the manufacturer's instructions.
Cells were rinsed once with dPBS and lifted with Trypsin-EDTA solution (0.05% trypsin/0.53 mM EDTA) as described in the Cell Culture and Membrane Preparation section above. […] The cell pellet was then re-suspended in 10 mL dPBS, and the cells were counted with a Coulter Z1 Dual Particle Counter (Beckman Coulter, Fullerton, Calif.). […]
Reactions were incubated for 10 minutes at 37° C. and stopped by addition of 100 μL ice-cold detection buffer. Plates were sealed, incubated overnight at room temperature and counted the next morning on a PerkinElmer TopCount liquid scintillation counter (PerkinElmer Inc., Wellesley, Mass.). The amount of cAMP produced (pmol/well) was calculated based on the counts observed for the samples and cAMP standards, as described in the manufacturer's user manual. […]

[4] = system: ACh-induced bronchoconstriction; test: Duration of bronchoprotection in guinea pig model of acetylcholine-induced bronchoconstriction; assay type: in vivo; details: inhalation, 1.5 hours post-dose
Procedure: Groups of six male guinea pigs (Duncan-Hartley (HsdPoc:DH) Harlan, Madison, Wisc.) weighing between 250 and 350 g were individually identified by cage cards. Throughout the study animals were allowed access to food and water ad libitum.
Test compounds were administered via inhalation over 10 minutes in a whole-body exposure dosing chamber (R&S Molds, San Carlos, Calif.). The dosing chambers were arranged so that an aerosol was simultaneously delivered to 6 individual chambers from a central manifold. Guinea pigs were exposed to an aerosol of a test compound or vehicle (WFI). […] This was measured gravimetrically by comparing pre-and post-nebulization weights of the filled nebulizer.
The bronchoprotective effects of test compounds administered via inhalation were evaluated using whole body plethysmography at 1.5, 24, 48 and 72 hours post-dose.
Forty-five minutes prior to the start of the pulmonary evaluation, each guinea pig was anesthetized with an intramuscular injection of ketamine (43.75 mg/kg), xylazine (3.50 mg/kg) and acepromazine (1.05 mg/kg). […] The depth of anesthesia was monitored and adjusted if the animal responded to pinching of its paw or if the respiration rate was greater than 100 breaths/minute. […]
Starting this program initiated the experimental protocol and data collection. […] By integrating this signal over time, a measurement offlow was calculated for each breath. […]

[5] = system: MCh-induced depressor responses; test: Methacholine-induced depressor responses in conscious guinea pigs; assay type: in vivo; details: guinea pig, inhalation
From the text: Healthy, adult, male Sprague-Dawley guinea pigs (Harlan, Indianapolis, Ind.), weighing between 200 and 300 g were used in these studies. Under isoflurane anesthesia (to effect), animals were instrumented with common carotid artery and jugular vein catheters (PE-50 tubing). The catheters were exteriorized utilizing a subcutaneous tunnel to the subscapular area. All surgical incisions were sutured with 4-0 Ethicon Silk and the catheters locked with heparin (1000 units/mL). Each animal was administered saline (3 mL, SC) at the end of surgery as well as buprenorphine (0.05 mg/kg, IM). Animals were allowed to recover on a heating pad before being returned to their holding rooms.
Approximately 18 to 20 hours following surgery, the animals were weighed and the carotid artery catheter on each animal was connected to a transducer for recording arterial pressure. Arterial pressure and heart rate was recorded using a Biopac MP-100 Acquisition System. Animals were allowed to acclimate and stabilize for a period of 20 minutes.
Each animal was challenged with MCh (0.3 mg/kg, IV) administered through the jugular venous line and the cardiovascular response was monitored for 10 minutes. […] At 1.5 and 24 hours post-dosing, the animals were re-challenged with MCh (0.3 mg/kg, IV) and the hemodynamic response was determined. […]

T2 sequence (P20309 whole entry): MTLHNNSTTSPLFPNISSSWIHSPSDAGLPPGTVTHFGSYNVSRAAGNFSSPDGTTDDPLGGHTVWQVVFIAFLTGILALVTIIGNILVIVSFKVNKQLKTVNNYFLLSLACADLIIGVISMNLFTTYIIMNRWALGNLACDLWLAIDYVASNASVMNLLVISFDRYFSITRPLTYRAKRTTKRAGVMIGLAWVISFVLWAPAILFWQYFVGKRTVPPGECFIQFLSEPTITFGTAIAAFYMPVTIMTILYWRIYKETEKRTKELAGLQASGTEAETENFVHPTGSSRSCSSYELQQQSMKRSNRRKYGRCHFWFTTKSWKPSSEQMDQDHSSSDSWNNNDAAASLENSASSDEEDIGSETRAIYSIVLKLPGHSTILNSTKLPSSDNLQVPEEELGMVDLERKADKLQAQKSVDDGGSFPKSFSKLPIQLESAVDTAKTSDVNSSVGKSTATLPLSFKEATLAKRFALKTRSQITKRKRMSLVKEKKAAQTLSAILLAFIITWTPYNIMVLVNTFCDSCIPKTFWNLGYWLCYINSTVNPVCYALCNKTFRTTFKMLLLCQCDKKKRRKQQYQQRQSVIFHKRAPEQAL

Ki [1]: < 10 nM
Ki (hM3 receptor (CHO cells)): < 10 nM
SMILES: O=C(CCN1CCC(OC(=O)Nc2ccccc2-c2ccccc2)CC1)NCCCCCNCc1ccc(O)cc1 [Example 2, Biphenyl-2-ylcarbamic Acid 1-{2-[5-(4-Hydroxybenzylamino)pentylcarbamoyl]ethyl}piperidin-4-yl Ester]

SMILES: N[C@@H](Cc1ccc(O)cc1)C(=O)NCCCCCNC(=O)CCN1CCC(OC(=O)Nc2ccccc2-c2ccccc2)CC1 [Example 6, Biphenyl-2-ylcarbamic Acid 1-(2-{5-[(S)-2-Amino-3-(4-Hydroxyphenyl)propionylamino]pentylcarbamoyl}ethyl)piperidin-4-yl Ester]
apparent lung selectivity index (ratio of anti-sialagogue ID50 to bronchoprotective ID50) [2]: greater than 5

Ki [3]: < 10 nM
SMILES: CN(CCCCCNC(=O)CCN1CCC(OC(=O)Nc2ccccc2-c2ccccc2)CC1)Cc1ccc(O)cc1 [Example 3, Biphenyl-2-ylcarbamic Acid 1-(2-{5-[(4-Hydroxybenzyl)methylamino]pentylcarbamoyl}ethyl)piperidin-4-yl Ester]
PD2(50) for ACh-induced bronchoconstriction [4]: less than 200 μg/mL

SMILES: O=C(CCN1CCC(OC(=O)Nc2ccccc2-c2ccccc2)CC1)NCCCCCNCCc1ccc(O)cc1 [Example 1, Biphenyl-2-ylcarbamic Acid 1-(2-{5-[2-(4-Hydroxyphenyl)ethylamino]pentylcarbamoyl}ethyl)piperidin-4-yl Ester]
apparent lung-selectivity index (ratio of anti-depressor ID50 to bronchoprotective ID50) [5]: greater than 5
